Assays:
TNFα = TNFα Inhibition Assay in PMBC (LPS-stimulated, ELISA); format: cell-based, human; conditions: LPS-stimulated PBMC; procedures substantially similar to Section 5.10
Protocol: Peripheral blood mononuclear cells (PBMC) from normal donors are obtained by Ficoll Hypaque (Pharmacia, Piscataway, N.J., USA) density centrifugation. Cells are cultured in RPMI 1640 (Life Technologies, Grand Island, N.Y., USA) supplemented with 10% AB+human serum (Gemini Bio-products, Woodland, Calif., USA), 2 mM L-glutamine, 100 U/ml penicillin, and 100 µg/ml streptomycin (Life Technologies).
PBMC (2×10^5 cells) are plated in 96-well flat-bottom Costar tissue culture plates (Corning, N.Y., USA) in triplicate. Cells are stimulated with LPS (from Salmonella abortus equi, Sigma cat. no. L-1887, St. Louis, Mo., USA) at 1 ng/ml final in the absence or presence of compounds. Compounds provided herein are dissolved in DMSO (Sigma) and further dilutions are done in culture medium immediately before use. The final DMSO concentration in all assays can be about 0.25%. Compounds are added to cells 1 hour before LPS stimulation. Cells are then incubated for 18-20 hours at 37° C. in 5% CO2, and supernatants are then collected, diluted with culture medium and assayed for TNF levels by ELISA (Endogen, Boston, Mass., USA). IC50s are calculated using non-linear regression, sigmoidal dose-response, constraining the top to 100% and bottom to 0%, allowing variable slope (GraphPad Prism v3.02).

IL-2 = IL-2 production by T cells (anti-CD3 stimulated, ELISA); format: cell-based, human; conditions: procedures substantially similar to Section 5.10
Protocol: PBMC are depleted of adherent monocytes by placing 1×10^8 PBMC in 10 ml complete medium (RPMI 1640 supplemented with 10% heat-inactivated fetal bovine serum, 2 mM L-glutamine, 100 U/ml penicillin, and 100 µg/ml streptomycin) per 10 cm tissue culture dish, in 37 C, 5% CO2 incubator for 30-60 minutes. The dish is rinsed with medium to remove all non-adherent PBMC. T cells are purified by negative selection using the following antibody (Pharmingen) and Dynabead (Dynal) mixture for every 1×10^8 non-adherent PBMC: 0.3 ml Sheep anti-mouse IgG beads, 15 1 anti-CD16, 15 1 anti-CD33, 15 1 anti-CD56, 0.23 ml anti-CD19 beads, 0.23 ml anti-HLA class II beads, and 56 1 anti-CD14 beads. The cells and bead/antibody mixture is rotated end-over-end for 30-60 minutes at 4 C. Purified T cells are removed from beads using a Dynal magnet. Typical yield is about 50% T cells, 87-95% CD3^+ by flow cytometry.
Tissue culture 96-well flat-bottom plates are coated with anti-CD3 antibody OKT3 at 5 μg/ml in PBS, 100 μl per well, incubated at 37° C. for 3-6 hours, then washed four times with complete medium 100 μl/well just before T cells are added. Compounds are diluted to 20 times of final in a round bottom tissue culture 96-well plate. Final concentrations are about 10 μM to about 0.00064 μM. A 10 mM stock of compounds provided herein is diluted 1:50 in complete for the first 20× dilution of 200 μM in 2% DMSO and serially diluted 1:5 into 2% DMSO. Compound is added at 10 μl per 200 l culture, to give a final DMSO concentration of 0.1%. Cultures are incubated at 37° C., 5% CO2 for 2-3 days, and supernatants analyzed for IL-2 and MIP-3 by ELISA (R&D Systems). IL-2 and MIP-3 levels are normalized to the amount produced in the presence of an amount of a compound provided herein, and EC50s calculated using non-linear regression, sigmoidal dose-response, constraining the top to 100% and bottom to 0%, allowing variable slope (GraphPad Prism v3.02).

Namalwa cells = assay: Cell proliferation assay (3H-thymidine incorporation); format: cell-based; conditions: procedures substantially similar to Section 5.10
Protocol: Cell lines Namalwa, MUTZ-5, and UT-7 are obtained from the Deutsche Sammlung von Mikroorganismen und Zellkulturen GmbH (Braunschweig, Germany). The cell line KG-1 is obtained from the American Type Culture Collection (Manassas, Va., USA). Cell proliferation as indicated by ^3H-thymidine incorporation is measured in all cell lines as follows.
Cells are plated in 96-well plates at 6000 cells per well in media. The cells are pre-treated with compounds at about 100, 10, 1, 0.1, 0.01, 0.001, 0.0001 and 0 M in a final concentration of about 0.25% DMSO in triplicate at 37° C. in a humidified incubator at 5% CO2 for 72 hours. One microcurie of ^3H-thymidine (Amersham) is then added to each well, and cells are incubated again at 37 C in a humidified incubator at 5% CO2 for 6 hours. The cells are harvested onto UniFilter GF/C filter plates (Perkin Elmer) using a cell harvester (Tomtec), and the plates are allowed to dry overnight. Microscint 20 (Packard) (25 ÿl/well) is added, and plates are analyzed in TopCount NXT (Packard). Each well is counted for one minute. Percent inhibition of cell proliferation is calculated by averaging all triplicates and normalizing to the DMSO control (0% inhibition). Each compound is tested in each cell line in three separate experiments. Final IC50s are calculated using non-linear regression, sigmoidal dose-response, constraining the top to 100% and bottom to 0%, allowing variable slope. (GraphPad Prism v3.02).

| melting point [°C] | SMILES | ability to inhibit TNFα (activity range) (TNFα) | ability to stimulate IL-2 (activity range) (IL-2) | ability to inhibit proliferation of Namalwa cells (activity range) (Namalwa cells) |
| --- | --- | --- | --- | --- |
|  | Nc1cccc2c1CN(C1CCC(=S)NC1=O)C2=S (stereo not shown) [3-(4-Amino-1-thioxo-1,3-dihydro-isoindol-2-yl)-6-thioxo-piperidin-2-one] | μM-mM | μM-mM | μM-mM |
| 248 to 250 | O=C1NC(=S)CCC1N1Cc2c(cccc2[N+](=O)[O-])C1=S (stereo not shown) [3-(4-Nitro-1-thioxo-1,3-dihydro-isoindol-2-yl)-6-thioxo-piperidin-2-one] | μM-mM | μM-mM | μM-mM |
|  | Nc1cccc2c1CN(C1CCC(=O)NC1=O)C2=S (stereo not shown) [3-(4-Amino-1-thioxo-1,3-dihydro-isoindol-2-yl)-piperidine-2,6-dione] | μM-mM | μM-mM | μM-mM |
